Measurements reported in PMC6983213, “Combining Chalcones with Donepezil to Inhibit Both Cholinesterases and Aβ Fibril Assembly” (Molecules, 2019).
“Also recorded” adds a separate entry of the source. Read-outs that look alike come from different tables or passages of the source.

How the values were obtained:
[1] = molecular target: EeAChE (AChE from Electrophorus electricus) (Electrophorus electricus, UniProt O42275); experiment: biochemical; conditions: for IC50: Ellman's method, pH 8.0, 25 °C, triplicate, ± SDEV, read-out: Inhibition (IC50) of EeAChE; for selectivity index (SI): based on IC50 values against EeAChE and EfBChE
EeAChE (AChE from Electrophorus electricus), sequence (O42275 24-633): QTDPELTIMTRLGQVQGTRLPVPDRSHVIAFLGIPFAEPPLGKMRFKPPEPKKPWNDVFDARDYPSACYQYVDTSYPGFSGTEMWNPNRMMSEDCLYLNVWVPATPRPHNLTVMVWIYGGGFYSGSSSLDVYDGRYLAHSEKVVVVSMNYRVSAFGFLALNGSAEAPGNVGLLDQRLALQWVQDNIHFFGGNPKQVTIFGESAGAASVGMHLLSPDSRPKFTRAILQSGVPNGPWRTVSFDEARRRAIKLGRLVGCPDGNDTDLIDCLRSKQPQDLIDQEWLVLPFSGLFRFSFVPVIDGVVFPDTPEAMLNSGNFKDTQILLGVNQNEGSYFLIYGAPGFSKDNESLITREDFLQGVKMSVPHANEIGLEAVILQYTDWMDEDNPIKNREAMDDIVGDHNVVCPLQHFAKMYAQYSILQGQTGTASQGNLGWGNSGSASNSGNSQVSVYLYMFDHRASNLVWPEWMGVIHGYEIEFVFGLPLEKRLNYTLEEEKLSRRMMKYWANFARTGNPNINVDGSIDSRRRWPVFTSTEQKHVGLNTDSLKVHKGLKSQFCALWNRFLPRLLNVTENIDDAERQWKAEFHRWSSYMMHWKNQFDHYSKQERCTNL
Experimental: (§1) The ChE inhibition assays were performed as previously described. The 1,3- and 1,4-chalcone-donepezil hybrids (0.1 nM to 100 μM) were dissolved in sodium phosphate buffer ((100 μL), 0.1 M, pH 8.0). […] All assays were performed in triplicate. The data was plotted as a sigmoidal curve and IC50 values were calculated using SigmaPlot 14.0 (Systat Software, San Jose, CA, USA).

[2] = molecular target: EfBChE (BChE from Equus ferus) (Equus caballus, UniProt P81908); experiment: biochemical; format: biochemical; conditions: for IC50: Ellman's method, pH 8.0, 25 °C, triplicate, ± SDEV, read-out: Inhibition (IC50) of EfBChE; for inhibition of EfBChE better than that of EeAChE: from IC50 values
EfBChE (BChE from Equus ferus), sequence (P81908 whole entry): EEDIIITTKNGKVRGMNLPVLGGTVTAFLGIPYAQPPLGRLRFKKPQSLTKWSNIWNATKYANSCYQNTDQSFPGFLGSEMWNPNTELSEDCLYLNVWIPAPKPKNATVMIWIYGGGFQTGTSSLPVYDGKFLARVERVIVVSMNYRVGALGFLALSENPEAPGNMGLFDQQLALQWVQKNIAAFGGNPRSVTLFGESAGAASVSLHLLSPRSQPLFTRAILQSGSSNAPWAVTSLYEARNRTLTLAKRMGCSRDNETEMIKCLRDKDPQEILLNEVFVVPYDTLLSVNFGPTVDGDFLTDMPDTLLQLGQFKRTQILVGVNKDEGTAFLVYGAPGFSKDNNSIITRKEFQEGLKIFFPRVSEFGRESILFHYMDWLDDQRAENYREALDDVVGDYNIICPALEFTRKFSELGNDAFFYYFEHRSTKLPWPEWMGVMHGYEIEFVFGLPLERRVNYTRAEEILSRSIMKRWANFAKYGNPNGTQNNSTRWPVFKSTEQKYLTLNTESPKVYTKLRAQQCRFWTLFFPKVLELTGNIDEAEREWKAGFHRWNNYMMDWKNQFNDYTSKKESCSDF
Experimental: as §1

F40 = Aβ(1–40) fibrils = molecular target: T1, F40 = Aβ(1–40) fibrils (Homo sapiens, UniProt P05067); experiment: 3H-PIB binding competition/titration, Aβ(1–40) fibrils; conditions: compounds at 10 μM (titration 10 to 0.03 μM); 1.2 nM 3H-PIB
T1 construct: lyophilized NH4OH-treated Aβ(1–40) (cat # A-1157-02); purchased rPeptide (Watkinsville, GA, USA) A-1157-02
T1 sequence (P05067 672-711): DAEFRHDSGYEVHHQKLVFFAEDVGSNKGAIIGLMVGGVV
Experimental: (§2) Prior to being transferred to screw-top polypropylene vials and being stored at −75 °C, these 1 mg/mL fibril suspensions were further diluted with an equal volume of the buffer solution.
(§3) The plates were sealed and incubated for 3 h at 22 °C, without shaking, and transferred to a 96-well Millipore Multiscreen HTS Hi Flow FB (GF/B) filter plate, and filtered with a multi-well plate vacuum manifold (Millipore Corporation, Bedford, MA, USA). […] Specific binding of ^3H-PIB was determined by subtracting the non-specific binding determined in the presence of 1 μM BTA-1.
(§4) The titration of compounds with ^3H-PIB bound to Aβ(1–40) and Aβ(1–42) fibrils and AD brain extract (ADPBC) were performed to further determine the competition of our compounds for the ^3H-PIB binding site of the AD brain. The experiments were performed as described in the ^3H-PIB binding assays of Section 3.4.3 with the use of a concentration range of 10 to 0.03 μM for the compounds tested.

F42 = Aβ(1–42) fibrils = molecular target: T2, F42 = Aβ(1–42) fibrils (Homo sapiens, UniProt P05067); experiment: 3H-PIB binding competition/titration, Aβ(1–42) fibrils; conditions: compounds at 10 μM (titration 10 to 0.03 μM); 1.2 nM 3H-PIB
T2 construct: Aβ(1–42) (cat # A-1167-02) purchased from rPeptide; purchased rPeptide (Watkinsville, GA, USA) A-1167-02
T2 sequence (P05067 672-713): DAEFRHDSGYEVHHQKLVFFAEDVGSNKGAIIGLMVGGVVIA
Experimental: as §2, §3, §4

[3] = system: ADPBC (Alzheimer's disease PIB binding complex); experiment: 3H-PIB binding competition/titration, ADPBC; design: species or system Human; conditions: compounds at 10 μM (titration 10 to 0.03 μM); 1.2 nM 3H-PIB
Experimental: Human AD brain frontal cortical tissue (from the Sanders-Brown Center on Aging Alzheimer’s Disease Center Brain Bank at the University of Kentucky) was processed as follows.
as §3, §4

[4] = molecular target: T3, N-biotinyl-Aβ(1–42) (bioAβ42) oligomer assembly (Homo sapiens, UniProt P05067); experiment: biochemical; conditions: for bioAβ42 oligomer assembly inhibition (in words): 1.56 to 50 μM, alone or in 1:1 / 1:1:1 mixtures; for EC50: concentration range 50 to 1.56 μM, duplicate, n = 3 independent experiments, ± SDEV
T3 construct: N-biotinyl Aβ(1–42) (bioAβ42) was purchased from Anaspec; purchased Anaspec (Fremont, CA, USA) AS-23523-05
T3 sequence (P05067 672-713): as above
Experimental: We first examined the effect of the synthesized 1,3- and 1,4-chalcone-donepezil hybrids 15a–15f and 16a–16f on the assembly of N-biotinyl-Aβ(1–42) (bioAβ42) monomers into oligomers. We quantified the assembly of bioAβ42 into soluble oligomers by using an ELISA assay in which the soluble oligomers were captured on NeutrAvidin^TM-coated ELISA plates and detected with streptavidin-horseradish peroxidase and colorimetric readout (Figure 3).
The plates were then stored in their blocked form at 4 °C prior to use for the oligomer assembly and dissociation assays.
The assembly of bioAβ42 into soluble oligomers was quantified with an ELISA assay in which the soluble oligomers were captured with the NeutrAvidin^TM coating the ELISA plates. The bound oligomers were detected with streptavidin-horseradish peroxidase (SA-HRP). […] Below, please find the details of the three steps (Steps 1–3) used for the oligomer assembly assay.
Step 1: Preparation of monomeric bioAβ42. For a low background, it was essential to rigorously pretreat the bioAβ42 peptide to convert (disaggregate) the multimeric species that form upon storage in the solid state, or even frozen in 1,1,1,3,3,3-hexafluoroisopropanol (HFIP) to monomers. The required amount of stock bioAβ42 peptide (0.5 mg dissolved at 1 mg/mL in HFIP) was pipetted into a polypropylene microfuge tube, dried to a thin film under a gentle air or N2 stream, and then disaggregated for 10 min at rt in neat trifluoroacetic acid (TFA). After removal of the TFA by drying with an air or N2 stream, DMSO was added to produce a 2.3 μg/mL (50×) stock solution.
Step 2: Assembly of bioAβ42 oligomers. 2 μL of disaggregated monomeric 50× bioAβ42 peptide in DMSO (prepared in Step 1) was pipetted into the bottom of each well of a polypropylene 96-well plate. […] The 96-well plate was sealed and incubated at rt for 30 min without shaking. The bioAβ42 oligomer assembly was stopped by adding 50 μL of 0.3% Tween 20 v/v in distilled H2O.
Step 3: Measurement of bioAβ42 oligomers. […] The 96-well plate was then sealed and incubated for 2 h while shaking at 150 rpm at rt. […] The plate was sealed and incubated for 1 h while shaking at 150 rpm at rt. The plate was washed as previously described, and 100 μL/well of HRP substrate (i.e., 1 mM:0.07 mM/tetramethylbenzidine:H2O2) in 0.2 M citrate buffer, pH 4.0 was added. The plate was incubated at rt for 5 to 10 min and the reaction was stopped by the addition of 100 μL/well of 1% v/v H2SO4. The absorbance of each well was read at 450 nm with a BioTek HT Synergy plate reader.
(§5) The effects of various chalcones, donepezil, donepezil analogue, and 1,3-chalcone-donepezil hybrids were tested for their ability to inhibit the bioAβ42 oligomer assembly and dissociation either alone or in combination with each other. The experiments were performed as described in the biotinyl-Aβ(1–42) (bioAβ42) oligomer assembly and dissociation assays section.

[5] = molecular target: T4, preformed bioAβ42 oligomers (Homo sapiens, UniProt P05067); experiment: bioAβ42 oligomer dissociation assay (NeutrAvidin ELISA); format: biochemical; conditions: 0.01 to 50 μM; ~18 h; alone or in 1:1 / 1:1:1 mixtures
T4 construct: N-biotinyl Aβ(1–42) (bioAβ42) was purchased from Anaspec; purchased Anaspec (Fremont, CA, USA) AS-23523-05
T4 sequence (P05067 672-713): as above
Experimental: Dissociation of preformed oligomers of bioAβ42 was measured by pretreating biotinylated oligomers with solvent controls or compounds for a period of time, capturing them with NeutrAvidin^TM on ELISA plates, and detecting the remaining bound oligomers with SA-HRP [77] as described above. Below, please find the details of the two steps (Steps 1 and 2) used for the oligomer dissociation assay.
Step 1: Preformed bioAβ42 oligomers (sufficient for 400 wells). In total, 1 μg of bioAβ42 peptide (1 mg/mL dissolved in HFIP) was pipetted into 20 μL of HFIP in a polypropylene microfuge tube, and dried to a thin film under a gentle air or N2 stream. The film was dissolved in 250 μL of DMSO and vortexed. […] After incubation at rt for 1 h with intermittent vortexing, 0.375 mL of 100 mM Tween 20 (10% v/v) in distilled H2O was added to make the final Tween 20 concentration 0.3% v/v. The preformed oligomers were mixed by inversion and aliquoted for storage at −75 °C. Note: Multiple freeze-thaw cycles should be avoided.
Step 2: Oligomer dissociation assay. […] Then, 25 μL of the preformed bio42 oligomers adjusted to 0.6% v/v Tween 20 was pipetted into each well of a polypropylene 96-well plate. […] The plates were sealed and shaken at 150 rpm overnight at rt. After 18 h of incubation, the plates were centrifuged at 1000× g for 10 min and a 100-μL aliquot was transferred from each well into a well of an NA-coated ELISA plate that had been blocked with Tween 20. The oligomer content of that aliquot was measured as described for the bioAβ42 oligomer assembly assay.
as §5

[6] = EC50 against bioAβ42 oligomer assembly
[7] = read-out: EC50 against bioAβ42 oligomer assembly

SMILES | IC50 [1] [nM] | selectivity index (SI) [1] | IC50 [2] [nM] | inhibition of EfBChE better than that of EeAChE [2] [fold] | displacement of 3H-PIB from F40 (in words) (F40 = Aβ(1–40) fibrils) | displacement of 3H-PIB from F42 (in words) (F42 = Aβ(1–42) fibrils) | displacement of 3H-PIB from ADPBC (in words) [3] | bioAβ42 oligomer assembly inhibition (in words) [4] | EC50 [4, 6] [nM] | EC50 [4, 7] [nM] | dissociation of preformed bioAβ42 oligomers (in words) [5]
COc1cc2c(cc1OCCOc1cccc(C(=O)/C=C/c3ccc(N(C)C)cc3)c1)C(=O)C(CC1CCN(Cc3ccccc3)CC1)C2 (centres unmarked) [15a, (E)-2-((1-Benzylpiperidin-4-Yl)Methyl)-6-(2-(3-(3-(4-(Dimethylamino)Phenyl)Acryloyl)Phenoxy)Ethoxy)-5-Methoxy-2,3-Dihydro-1H-Inden-1-One] | 1020 ± 330 | 0.02 | 20 ± 2 | 51 | better binding to F40, F42, and ADPBC than 15c, 15d, 15e, and 15f | better binding to F40, F42, and ADPBC than 15c, 15d, 15e, and 15f | better binding to F40, F42, and ADPBC than 15c, 15d, 15e, and 15f | successful in preventing the self-assembly of bioAβ42; also recorded: better inhibition of bioAβ42 oligomer assembly | 4830 ± 470 | – | –
COc1cc2c(cc1OCCCCOc1cccc(C(=O)/C=C/c3ccc(N(C)C)cc3)c1)C(=O)C(CC1CCN(Cc3ccccc3)CC1)C2 (centres unmarked) [15b, (E)-2-((1-Benzylpiperidin-4-Yl)Methyl)-6-(4-(3-(3-(4-(Dimethylamino)Phenyl)Acryloyl)Phenoxy)Butoxy)-5-Methoxy-2,3-Dihydro-1H-Inden-1-One] | 650 ± 140 | 0.05 | 30 ± 10 | 22 | better binding to F40, F42, and ADPBC than 15c, 15d, 15e, and 15f | better binding to F40, F42, and ADPBC than 15c, 15d, 15e, and 15f | better binding to F40, F42, and ADPBC than 15c, 15d, 15e, and 15f | better inhibition of bioAβ42 oligomer assembly | – | 4100 ± 170 | –
COc1cc2c(cc1OCCOc1ccc(C(=O)/C=C/c3ccc(N(C)C)cc3)cc1)C(=O)C(CC1CCN(Cc3ccccc3)CC1)C2 (centres unmarked) [16a, (E)-2-((1-Benzylpiperidin-4-Yl)Methyl)-6-(2-(4-(3-(4-(Dimethylamino)Phenyl)Acryloyl)Phenoxy)Ethoxy)-5-Methoxy-2,3-Dihydro-1H-Inden-1-One] | 70 ± 10 | ≈1.4 | ~100 | – | better affinity for F40 and F42 than 16b, 16c, 16d, 16e, and 16f | better affinity for F40 and F42 than 16b, 16c, 16d, 16e, and 16f | – | better inhibition of bioAβ42 oligomer assembly | 9370 ± 2100 | – | –
CN(C)c1ccc(/C=C/C(=O)c2cccc(O)c2)cc1 [compound 3, (E)-3-(4-(Dimethylamino)Phenyl)-1-(3-Hydroxyphenyl)Prop-2-En-1-One] | – | – | – | – | – | – | – | did not inhibit bioAβ42 assembly | – | > 50000 | did not dissociate the preformed oligomers
CN(C)c1ccc(/C=C/C(=O)c2cccc(OCCO)c2)cc1 [compound 17, (E)-3-(4-(Dimethylamino)Phenyl)-1-(3-(2-Hydroxyethoxy)Phenyl)Prop-2-En-1-One] | – | – | – | – | – | – | – | did not inhibit bioAβ42 assembly | – | – | did not dissociate the preformed oligomers
COc1cc2c(cc1OCCO)C(=O)C(CC1CCN(Cc3ccccc3)CC1)C2 (centres unmarked) [compound 20, 2-((1-Benzylpiperidin-4-Yl)Methyl)-6-(2-Hydroxyethoxy)-5-Methoxy-2,3-Dihydro-1H-Inden-1-One] | – | – | – | – | – | – | – | did not inhibit bioAβ42 assembly | – | – | did not dissociate the preformed oligomers
